What is called IC50 is the midpoint of a concentration-inhibition curve.

T1 sequence (P50579 whole entry): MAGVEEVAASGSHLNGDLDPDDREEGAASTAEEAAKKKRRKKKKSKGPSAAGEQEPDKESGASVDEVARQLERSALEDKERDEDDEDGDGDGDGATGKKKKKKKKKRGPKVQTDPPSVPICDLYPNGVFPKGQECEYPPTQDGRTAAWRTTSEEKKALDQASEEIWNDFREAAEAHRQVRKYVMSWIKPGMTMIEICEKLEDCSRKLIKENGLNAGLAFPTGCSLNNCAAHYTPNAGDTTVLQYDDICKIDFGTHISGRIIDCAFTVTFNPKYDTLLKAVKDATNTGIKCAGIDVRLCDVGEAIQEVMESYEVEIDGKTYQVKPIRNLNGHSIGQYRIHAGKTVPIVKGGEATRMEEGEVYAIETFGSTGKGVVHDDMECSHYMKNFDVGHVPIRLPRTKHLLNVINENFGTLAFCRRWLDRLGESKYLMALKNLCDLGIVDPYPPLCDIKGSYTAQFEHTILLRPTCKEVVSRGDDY

One assay concerns the target T1, Human recombinant MetAP2 (Homo sapiens, UniProt P50579).
T1 construct: made in house; host or cells: Sf9 insect cells
Description: inhibition of recombinant human MetAP2 activity (MAS substrate, amino acid oxidase/Amplex red fluorescence). In kind it is biochemical. Conditions: manganese enzyme, 30 minutes at 25° C., pH 7.5, 0.75 mM MAS substrate, 1% DMSO. The procedure:
Compounds are tested for their capacity to inhibit recombinant human MetAP2 activity using the following assay.
Human recombinant MetAP2 expressed in Sf9 cells followed by affinity purification and EDTA treatment to remove endogenous active site cation was dialysed against MnCl2 to produce the manganese enzyme used in the assay. The assay was carried out for 30 minutes at 25° C. in 50 mM HEPES buffer containing 100 mM NaCl, pH 7.5 the presence of 0.75 mM Methionine-Alanine-Serine (MAS) substrate and 50 μg/ml amino acid oxidase using a dilution of purified MetAP2 giving >3-fold signal:noise. Cleavage of the substrate by MetAP2 and oxidation of free methionine by amino acid oxidase was detected and quantified using fluorescence generated by Amplex red (10-acetyl-3,7-dihydroxyphenoxazine) in combination with horseradish peroxidase which detects H2O2 released during the oxidation step. The fluorescent signal was detected using a multiwell fluorimeter. Compounds were diluted in DMSO prior to addition to assay buffer, the final DMSO concentration in the assay being 1%.
The IC50 is defined as the concentration at which a given compound achieves 50% inhibition of control. IC50 values are calculated using the XLfit software package (version 2.0.5).
For the compound `O=C(O)c1c(NS(=O)(=O)c2ccc(F)cc2/C=C2\CN3CCC2CC3)ccc2c1OC[C@@H]1C[C@H]21` (single isomer, unassigned) [Example 10], the concentration for half-maximal inhibition (IC50) was less than 50 nM. Still for that read-out and setting: for `O=C(O)c1c(NS(=O)(=O)c2ccc(F)cc2/C=C2/CN3CCC2CC3)ccc2c1OC[C@@H]1C[C@H]21` (single isomer, unassigned) [Example 11] the value was less than 50 nM; for `CCN1CCC/C(=C\c2cc(F)ccc2S(=O)(=O)Nc2ccc3c(c2C(=O)O)OC[C@@H]2C[C@H]32)C1` (single isomer, unassigned) [Example 12], less than 50 nM; for `CCN1CCC/C(=C/c2cc(F)ccc2S(=O)(=O)Nc2ccc3c(c2C(=O)O)OC[C@@H]2C[C@H]32)C1` (single isomer, unassigned) [Example 13], 50 to 500 nM. Still for that read-out and setting: for `CCN1CCCC(Cc2cc(F)ccc2S(=O)(=O)Nc2ccc3c(c2C(=O)O)OCC2CC32)C1` (single isomer, unassigned) [Example 14] the value was less than 50 nM; for `CCN1CCCC(Cc2cc(F)ccc2S(=O)(=O)Nc2ccc3c(c2C(=O)O)OCC2CC32)C1` (single isomer, unassigned) [Example 15], less than 50 nM. Still for that read-out and setting: as for `CCN1[C@@H]2CC[C@H]1C[C@@H](Cc1cc(F)ccc1S(=O)(=O)Nc1ccc3c(c1C(=O)O)OC[C@@H]1C[C@H]31)C2` (single isomer, unassigned) [Example 18], the figure is less than 50 nM. Regarding `CCN1[C@@H]2CC[C@H]1C[C@H](Cc1cc(F)ccc1S(=O)(=O)Nc1ccc3c(c1C(=O)O)OC[C@@H]1C[C@H]31)C2` (single isomer, unassigned) [Example 19], the IC50 is less than 50 nM. In the case of `CCN1CCC(NC(=O)Cc2cc(F)ccc2S(=O)(=O)Nc2ccc3c(c2C(=O)O)OC[C@@H]2C[C@H]32)C1` (stereo in doubt) [Example 30, (1aR,7bS)-5-{2-[((S)-1-Ethylpyrrolidin-3-ylcarbamoyl)methyl]-4-fluoro-benzenesulfonylamino}-1,1a,2,7b-tetrahydrocyclopropa[c]chromene-4-carboxylic acid], the concentration for half-maximal inhibition (IC50) was less than 50 nM. Still for that read-out and setting: as for `CCN(CC)CC1CC1c1cc(F)ccc1S(=O)(=O)Nc1ccc2c(c1C(=O)O)OC[C@@H]1C[C@H]21` (stereo partly drawn) [Example 1, (1aR,7bS)-5-[2-(2-Diethylaminomethylcyclopropyl)-4-fluorobenzenesulfonyl-amino]-1,1a,2,7b-tetrahydrocyclopropa[c]chromene-4-carboxylic acid], the figure is 50 to 500 nM.

For the compound `O=C(O)c1c(NS(=O)(=O)c2ccc(F)cc2C2CC2CN2CCCC2)ccc2c1OC[C@@H]1C[C@H]21` (stereo partly drawn) [Example 4, (1aR,7bS)-5-{4-Fluoro-2-[2-(pyrrolidin-1-ylmethyl)cyclopropyl]benzene-sulfonylamino}-1,1a,2,7b-tetrahydrocyclopropa[c]chromene-4-carboxylic acid], the 50% inhibitory concentration (IC50) lay within 50 to 500 nM.

Take `CCN(CC)CC(C)(C)Cc1cc(F)ccc1S(=O)(=O)Nc1ccc2c(c1C(=O)O)OC[C@@H]1C[C@H]21` [Example 5, (1aR,7bS)-5-[2-(3-Diethylamino-2,2-dimethylpropyl)-4-fluorobenzenesulfonyl-amino]-1,1a,2,7b-tetrahydrocyclopropa[c]chromene-4-carboxylic acid]: the IC50 was less than 50 nM.

With `O=C(O)c1c(NS(=O)(=O)c2ccc(F)cc2C[C@@H]2CCNC2)ccc2c1OC[C@@H]1C[C@H]21` [Example 6, (1aR,7bS)-5-[4-Fluoro-2-((R)-pyrrolidin-3-ylmethyl)benzenesulfonylamino]-1,1a,2,7b-tetrahydrocyclopropa[c]chromene-4-carboxylic acid], the concentration for half-maximal inhibition (IC50) was less than 50 nM. Consider `O=C(O)c1c(NS(=O)(=O)c2ccc(F)cc2C[C@H]2CCNC2)ccc2c1OC[C@@H]1C[C@H]21` [Example 7, (1aR,7bS)-5-[4-Fluoro-2-((S)-pyrrolidin-3-ylmethyl)benzenesulfonylamino]-1,1a,2,7b-tetrahydrocyclopropa[c]chromene-4-carboxylic acid], for which the IC50 was less than 50 nM. The same measure, in the same setting: for `CC(C)(O)CN1CC[C@@H](Cc2cc(F)ccc2S(=O)(=O)Nc2ccc3c(c2C(=O)O)OC[C@@H]2C[C@H]32)C1` [Example 8, (1aR,7bS)-5-{4-Fluoro-2-[(R)-1-(2-hydroxy-2-methylpropyl)pyrrolidin-3-ylmethyl]benzenesulfonylamino}-1,1a,2,7b-tetrahydrocyclopropa[c]chromene-4-carboxylic acid] the value was less than 50 nM. As to `O=C(O)c1c(NS(=O)(=O)c2ccc(F)cc2CC2CN3CCC2CC3)ccc2c1OC[C@@H]1C[C@H]21` (stereo partly drawn) [Example 9, (1aR,7bS)-5-[2-(1-Azabicyclo[2.2.2]oct-3-ylmethyl)-4-fluorobenzenesulfonyl-amino]-1,1a,2,7b-tetrahydrocyclopropa[c]chromene-4-carboxylic acid], the IC50 is less than 50 nM. Take `CCN1CCC[C@@H]1CCc1cc(F)ccc1S(=O)(=O)Nc1ccc2c(c1C(=O)O)OC[C@@H]1C[C@H]21` [Example 16, (1aR,7bS)-5-{2-[2-((S)-1-Ethylpyrrolidin-2-yl)ethyl]-4-fluorobenzene-sulfonylamino}-1,1a,2,7b-tetrahydrocyclopropa[c]chromene-4-carboxylic acid]: the half-inhibitory concentration (IC50) is less than 50 nM. Still for that read-out and setting: for `O=C(O)c1c(NS(=O)(=O)c2ccc(F)cc2C[C@@H]2CCN(CCO)C2)ccc2c1OC[C@@H]1C[C@H]21` [Example 17, (1aR,7bS)-5-{4-Fluoro-2-[(R)-1-(2-hydroxyethyl)pyrrolidin-3-ylmethyl]-benzenesulfonylamino}-1,1a,2,7b-tetrahydrocyclopropa[c]chromene-4-carboxylic acid] the value was less than 50 nM. Same read-out and setting: as for `CC1(O)CCN(C/C=C\c2cc(F)ccc2S(=O)(=O)Nc2ccc3c(c2C(=O)O)OC[C@@H]2C[C@H]32)C1` (stereo partly drawn) [Example 20, (1aR,7bS)-5-{4-Fluoro-2-[(Z)-3-(3-hydroxy-3-methylpyrrolidin-1-yl)prop-1-enyl]benzenesulfonylamino}-1,1a,2,7b-tetrahydrocyclopropa[c]chromene-4-carboxylic acid], the figure is less than 50 nM; as for `O=C(O)c1c(NS(=O)(=O)c2ccc(F)cc2/C=C\CN2CCC(O)CC2)ccc2c1OC[C@@H]1C[C@H]21` [Example 21, (1aR,7bS)-5{4-Fluoro-2-[(Z)-3-(4-hydroxypiperidin-1-yl)prop-1-enyl]benzenesulfonylamino}-1,1a,2,7b-tetrahydrocyclopropa[c]chromene-4-carboxylic acid], 50 to 500 nM; as for `CC1(O)CCN(C/C=C\c2cc(F)ccc2S(=O)(=O)Nc2ccc3c(c2C(=O)O)OC[C@@H]2C[C@H]32)CC1` [Example 22, (1aR,7bS)-5-{4-Fluoro-2-[(Z)-3-(4-hydroxy-4-methylpiperidin-1-yl)prop-1-enyl]benzenesulfonylamino}-1,1a,2,7b-tetrahydrocyclopropa[c]chromene-4-carboxylic acid], 50 to 500 nM. Take `CCN1CC2C(C1)C2c1cc(F)ccc1S(=O)(=O)Nc1ccc2c(c1C(=O)O)OC[C@@H]1C[C@H]21` (stereo partly drawn) [Example 23, (1aR,7bS)-5-[2-(3-Ethyl-3-azabicyclo[3.1.0]hex-6-yl)-4-fluorobenzene-sulfonylamino]-1,1a,2,7b-tetrahydrocyclopropa[c]chromene-4-carboxylic acid]: the 50% inhibitory concentration (IC50) lay within 50 to 500 nM.

On to `O=C(O)c1c(NS(=O)(=O)c2ccc(F)cc2/C=C\[C@@H]2CCCN2)ccc2c1OC[C@@H]1C[C@H]21` [Example 24, (1aR,7bS)-5-{4-Fluoro-2-[(Z)-2-((S)-pyrrolidin-2-yl)ethenyl]benzenesulfonyl-amino}-1,1a,2,7b-tetrahydrocyclopropa[c]chromene-4-carboxylic acid], for which the IC50 is less than 50 nM. For `O=C(O)c1c(NS(=O)(=O)c2ccc(F)cc2/C=C\CN2CC[C@H](CO)C2)ccc2c1OC[C@@H]1C[C@H]21` [Example 25, (1aR,7bS)-5-{4-Fluoro-2-[(Z)-3-((S)-3-hydroxymethylpyrrolidin-1-yl)prop-1-enyl]benzenesulfonylamino}-1,1a,2,7b-tetrahydrocyclopropa[c]chromene-4-carboxylic acid], the 50% inhibitory concentration (IC50) was less than 50 nM.

In the case of `O=C(O)c1c(NS(=O)(=O)c2ccc(F)cc2/C=C\CN2CC[C@@H](CO)C2)ccc2c1OC[C@@H]1C[C@H]21` [Example 26, (1aR,7bS)-5-{4-Fluoro-2-[(Z)-3-((R)-3-hydroxymethylpyrrolidin-1-yl)prop-1-enyl]benzenesulfonylamino}-1,1a,2,7b-tetrahydrocyclopropa[c]chromene-4-carboxylic acid], the IC50 is less than 50 nM.

The assay is the same for the next values; noted with them: manganese enzyme, 30 minutes at 25° C., pH 7.5, 0.75 mM MAS substrate, 1% DMSO; listed as First eluting enantiomer of (1aR,7bS)-5-[2-(2-diethylamino-methylcyclopropyl)-4-.
With `CCN(CC)CC1CC1c1cc(F)ccc1S(=O)(=O)Nc1ccc2c(c1C(=O)O)OC[C@@H]1C[C@H]21` (stereo partly drawn) [Example 2], the IC50 is less than 50 nM.

Still in this assay, the particulars now being: manganese enzyme, 30 minutes at 25° C., pH 7.5, 0.75 mM MAS substrate, 1% DMSO; listed as Second eluting enantiomer of (1aR,7bS)-5-[2-(2-diethylamino-methylcyclopropyl)-4.
Turning to `CCN(CC)CC1CC1c1cc(F)ccc1S(=O)(=O)Nc1ccc2c(c1C(=O)O)OC[C@@H]1C[C@H]21` (stereo partly drawn) [Example 3], the IC50 was in the range of 50 to 500 nM.

For the origin of these results see US9868717B2, “Tricyclic sulphonamide compounds and methods of making and using same” (Zafgen, Inc., priority 2012, dated 2018).
